Seven compounds from patent US20090312194A1, “SELECTION OF PERSONALIZED CANCER THERAPY REGIMENS USING INTERFERING RNA FUNCTIONAL SCREENING” (OREGON HEALTH & SCIENCE UNIVERSITY, priority 2008, published 2009) can be followed below.

Where only a bound is given, the exact number is not on record here.

Series [1] deals with primary cells from patient samples. The experiment in a line: Colony assay of primary patient cells in methocult. Type of series: cell-based, human. The conditions noted are these: ten days. The method, then: For determination of factor-independent growth, parental BA/F3 cells as well as BA/F3 cells expressing […], or W515L were washed three times and 1 million cells were seeded into triplicate wells of a 6-well plate in R10. Total viable cells were determined every day for 1 week using PI exclusion on a Guava cell counter (GUAVA TECHNOLOGIES®). For colony assays, 200,000 primary cells from patient samples were incubated in the presence of dose gradients of AG490, SU11248, or PTK787 in methocult containing IL-3, GM-CSF, and SCF ([…] TECHNOLOGIES®). Ten days later, colonies were counted manually or using a GELCOUNT® automated colony counter (OXFORD OPTRONIX®, Oxford, UK). For siRNA functional screens on patient samples, a Student's t test was carried out for each well in comparison to both single and pooled non-specific siRNA controls. The mean of the two-tailed p-value was determined for consideration of significance. […] For cell proliferation, cell viability, and colony assays, a Student's t test was carried out for each dose or time point compared with the relevant control cell line or the no drug control.

The next series has as its system HMC1.1 cells. The series can be described thus: MTS proliferation assay with small-molecule kinase inhibitors, HMC1.1 cells. It counts as cell-based, human. To be noted: for IC50: 72 hours, MTS assay. The method, then:
(§1) K562 cells were obtained from American Type Culture Collection (Manassas, Va.). CMK and HEL cells were obtained from the German National Resource Centre for Biological Material (DSMZ). […] For proliferation assays, cells were incubated for 72 hours in the presence of JAK Inhibitor I, JAK3 inhibitor III, AG-490, PP2, or Src Kinase Inhibitor I (EMD BIOSCIENCES®, San Diego, Calif.), and the number of viable cells was determined with the […] 96® AQueous One solution cell proliferation assay (PROMEGA®, Madison, Wis.). For HMC1.1 cell stimulation, cells were serum starved overnight in RPMI supplemented with 0.1% bovine serum albumin, L-glutamine, and penicillin/streptomycin. The following day, cells were stimulated for five minutes with 100 ng/ml recombinant stem cell factor (Peprotech, Rocky Hill, N.J.).
(§2) For tyrosine kinase siRNA library knockdown experiments, a Student's t test was carried out for each well in comparison to both single and pooled non-specific siRNA controls. The mean of the two-tailed p-value was determined for consideration of significance and data points with p-value less than 0.05 and mean value less than 70% of non-specific controls were considered significant. For cell proliferation assays, a Student's t test was carried out for each dose point comparing HMC1.1 to K562 cell viability.

Series [2] has as its system BA/F3 cells expressing MPL 1886InsGG. The experiment in a line: Proliferation assay, factor-independent BA/F3 cells expressing MPL 1886InsGG. It counts as cell-based. The conditions noted are these: factor-independent BA/F3 MPL 1886InsGG, three days. How it is done: (§3) 96 AQueous One solution cell proliferation assay (PROMEGA®). […] Total viable cells were determined every day for 1 week using PI exclusion on a Guava cell counter (GUAVA TECHNOLOGIES®). […] Ten days later, colonies were counted manually or using a GELCOUNT® automated colony counter (OXFORD OPTRONIX®, Oxford, UK).
(§4) MPL was then cloned into a Gateway compatible version of MSCV-IRES-GFP (MIG) by performing an LR recombination reaction. […] One milliliter of viral supernatant was mixed with polybrene (5 mg/ml), HEPES (7.5 mM), and 10^6 BA/F3 cells and placed in a centrifuge at 2500 RPM for 90 minutes at 30° C.

In series [3] the test system is BA/F3 cells expressing MPL W515L. The series can be described thus: Proliferation assay, factor-independent BA/F3 cells expressing MPL W515L. It counts as cell-based. To be noted: three days. How it is done: as §3, §4
Series [4] deals with primary cells from patient samples. The experiment in a line: Cell viability assay (MTS) of primary patient cells with inhibitor dose gradients. Type of series: cell-based, human. The conditions noted are these: cells from CMML patient 07-079, three days.
A further series concerns HEL cells. The series can be described thus: MTS proliferation assay with kinase inhibitors, HEL cells. Type of series: cell-based. The conditions noted are these: HEL cells (JAK2 V617F), 72 hours. How it is done:
as §1, §3
(Tetrazolium dyes change colour on reduction, which living cells bring about.)

In series [5] the target is MPL^1886InsGG (thrombopoietin receptor with two base-pair GG insertion in exon 12) (human) (UniProt P40238). The experiment in a line: cell-based or functional assay. To be noted: scale: fold lower dose of thrombopoietin than MPL^WT.
The test system of series [6] is Patient 07-079, ASM with associated CMML. The experiment in a line: Midostaurin treatment of patient 07-079. It counts as in vivo, human. To be noted: patient 07-079, midostaurin 50 mg bid, briefly in combination with hydroxyurea.
Method: White blood cell counts were monitored over 9 days. Normal white blood cell counts range from 4−12×10^3 per ml. […] Cells were then stimulated for 15 minutes with thrombopoietin (10 ng/ml) and cell lysates were subjected to immunoblot analysis for phospho or total-JAK2 as well as β-actin. […] Cell proliferation was determined after three days. Values represent the percent mean (normalized to untreated control wells)±s.e.m. (n=3).
In another series the test system is K562 cells. The experiment in a line: MTS proliferation assay with small-molecule kinase inhibitors, K562 control cells. Type of series: cell-based. The conditions noted are these: concentrations up to and including 10 μM. How it is done: as §1, §2

Turning to `Clc1ccc(Nc2nnc(Cc3ccncc3)c3ccccc23)cc1` [PTK787], in series [1] (cells from AML patient 07-008, methocult with IL-3, GM-CSF, SCF), the colony formation result was “blocked by each drug at low nanomolar concentrations”.
The IC50 is the point on the concentration scale where inhibition reaches its midpoint. For the compound `N#C/C(=C\c1ccc(O)c(O)c1)C(=O)NCc1ccccc1` [AG-490], the IC50 in the series with HMC1.1 cells is greater than 50 µM; in the series with HEL cells, 45 µM. For the same compound, the “sensitivity in colony assay” value in series [1] (cells from CMML patient 07-079, methocult) was “Strong sensitivity”. Besides, the sensitivity to inhibitor result in [2] and in series [3] was “strong sensitivity” each time. The “sensitivity in cell viability assay” value in series [4] is reported as “Strong sensitivity”.
Take `COc1cc2ncnc(Nc3ccc(Oc4ccccc4)cc3)c2cc1OC` [SRC inhibitor I]: the IC50 in the series on HMC1.1 cells turned out to be 5 µM.
In the case of “recombinant thrombopoietin (Peprotech) (ligand)”, the phosphorylation of JAK2, STAT3, STAT5, ERK and AKT (immunoblot) after thrombopoietin stimulation of BA/F3 cells in series [5] is 10.
Compound `CC(C)(C)n1nc(-c2ccc(Cl)cc2)c2c(N)ncnc21` [PP2] displayed an IC50 with HMC1.1 cells of 1.5 µM.
`CO[C@@H]1[C@H](N(C)C(=O)c2ccccc2)C[C@H]2O[C@]1(C)n1c3ccccc3c3c4c(c5c6ccccc6n2c5c31)C(=O)NC4` [midostaurin]: the “period to normalization of WBC counts” value in series [6] worked out at 5 days.
In the series with HMC1.1 cells, JAK inhibitor I returned an IC50 of 5 µM. Moreover, the “viability in combination with PP2” value in the series on HMC1.1 cells (JAK inhibitor I dose range plus 1.5 μM PP2, compared with JAK inhibitor alone) was “lower viability readings at all dose points”. Further, in the series with HMC1.1 cells (maximal reduction despite increasing concentrations), the “reduction of viability and proliferation” value is reported as roughly 50%. Besides, the sensitivity to inhibitor result with K562 cells is recorded as “resistant”.
